Experimental findings from publication PMC11984924, “Dipeptidic Phosphonates: Potent Inhibitors of Pseudomonas aeruginosa Elastase B Showing Efficacy in a Murine Keratitis Model” (Advanced Science, 2025) are described below.

The term AUC(0-t) denotes the area under the concentration-time curve up to a stated or last time point. The term CL/F denotes the apparent clearance, not corrected for the fraction that reaches the circulation. By Cmax is commonly meant the highest concentration seen after dosing. By MRT is commonly meant a mean duration of stay, worked out from the concentration-time curve. As a reminder, the Tmax is the time at which the peak concentration occurs. In general, half-life refers to the time in which the quantity being followed falls by half.

The test system of one data set is 44 key molecular targets. As to the kind of experiment: SafetyScreen44 in vitro panel (whole panel). More on the design: species or system human. As to conditions: 100 µM. The text has this:
(§1) Moreover, we explored the safety profile of frontrunner (R)‐30 in more detail in order to detect additional crucial off‐target interactions. For this purpose, we employed the SafetyScreen44 in vitro panel comprising selected binding, inhibition and uptake assays.^[ [35] ^] The panel is a specialized pharmacological profiling tool that tests compounds against 44 key molecular targets, aiming to identify potential safety risks early in drug discovery. […]
(§2) The off-target Safety Screen44TM was performed by the CRO Eurofins Cerep SA (Celle-
(§3) L'Evescault, France) according to their protocols.[13] […]
(§4) MMP-1 MMP-2 MMP-3 TACE (ADAM17)
(§5) Compound [% inhibition at [% inhibition at [% inhibition at [% inhibition at 100

The next data set deals with sodium channel. As to the kind of experiment: SafetyScreen44: sodium channel binding. Set-up: species or system human. As to conditions: 100 µM.
Source text: as §1, §2, §3, §4, §5

Data set [1] in a line: In vivo pharmacokinetic study in CD-1 mice, 30 mg/kg SC. Conditions: male, mouse, 30 mg/kg subcutaneous. On the procedure: page 60: Figure S7: Basolateral concentration of 9 (A) and 30 (B) in the Calu-3 permeability model. […] For pharmacokinetic experiments, outbred male CD-1 mice (Charles River, Netherlands), 4 weeks old, were used. The animal studies were conducted in accordance with the recommendations of the European Community (Directive 2010/63/EU, 1st January 2013). All animal procedures were performed in strict accordance with the German regulations of the Society for Laboratory Animal Science (GV-SOLAS) and the European Health Law of the Federation of Laboratory Animal Science Associations (FELASA). Animals were excluded from further analysis if sacrifice was necessary according to the human endpoints established by the ethical board. All experiments were approved by the ethical board of the […] Verbraucherschutz und […], Oldenburg, Germany. 30 was subjected to a focused PK study and was administered 30 mg/kg SC. At time points t= […] euthanatized and blood was collected from the heart. For all PK studies, whole blood was collected into Eppendorf tubes coated with 0.5 M EDTA and immediately spun down at 13,000 rpm for 10 min at 4°C. The plasma was transferred into a new Eppendorf tube and then stored at -80°C until analysis. Then, a broncheoalveolar lavage was conducted using isotonic sodium chloride solution for all PK studies. For all PK studies, lung, kidney and liver were aseptically removed and homogenized using a Polytron (Kinematica) in isotonic sodium chloride solution. Organ samples were aliquoted into Eppendorf tubes and stored at -80°C until analysis. Moreover, spontaneous urine was also collected. […] system and coupled to an AB Sciex QTrap6500+ mass spectrometer as described previously.[10] Mass spectrometric conditions can be found in Table S5. First, a calibration curve was prepared by spiking different concentrations of 30 into the respective matrix (mouse […] (1 picture or pasted object on this page, not shown here) page 61: plasma (pooled, from CD-1 mice) for plasma samples, isotonic sodium chloride solution for BALF samples, lung tissue for lung samples, kidney tissue for kidney samples, liver tissue for liver samples and urine for urine samples). Caffeine was used as an internal standard. In addition, quality control samples (QCs) were prepared for 30 with the respective matrix. The following extraction procedure was used: 7.5 μl of a plasma sample (calibration samples, QCs […] internal standard for 5 min at 2000 rpm on an Eppendorf MixMate® vortex mixer. 10 μl of a urine sample (calibration samples, QCs or PK samples) was extracted with 40 μl of methanol containing 12.5 ng/ml of caffeine as internal standard for 5 min at 2000 rpm on an Eppendorf MixMate® vortex mixer. Then samples (plasma and urine) were spun down at 13.000 rpm for 5 min. Supernatants were transferred to standard HPLC-glass vials. 50 μl of a BALF / lung tissue / kidney tissue or liver tissue sample (calibration samples, QCs or PK samples) were extracted with 50 μl of methanol and 1 μl caffeine (concentration 1 μg/ml in methanol) for 5 min at 800 rpm on an Eppendorf MixMate® vortex mixer. Then samples (BALF, liver, kidney, lung) were spun down at 4,000 rpm for 40 min at 4°C. Supernatants were transferred to 96well V-bottom plates (Greiner). Urea was used to enable calculation of epithelial lining fluid (ELF) concentrations. Peak areas of each sample and of the corresponding internal standard were analyzed using MultiQuant 3.0 software (AB Sciex). Peak areas of the respective sample were normalized to the internal standard peak area. Peaks of PK samples were quantified using the calibration curve. The accuracy of the calibration curve was determined using QCs independently prepared on different days. PK parameters were determined using a non- compartmental analysis with PKSolver.[11] ELF concentrations were calculated using the following formula (2).[12] (1) V_ELF=V_BALF × (Urea_BALF)/(Urea_Plasma ) (2) c_ELF=c_BALF× V_BALF/V_ELF S60

As for `CC(=O)c1ccc(NC(=O)[C@@H](NC(=O)[C@@H](CC(C)C)P(=O)(O)O)C(C)C)cc1` [(R)‐30], the “SafetyScreen44: number of targets inhibited” value in the data set with 44 key molecular targets was “ten targets by >50%”. Moreover, the “sodium channel binding inhibition” value in the data set with sodium channel is given as 91.1%.

In the case of `CC(=O)c1ccc(NC(=O)[C@@H](NC(=O)C(CC(C)C)P(=O)(O)O)C(C)C)cc1` (stereo partly drawn) [compound 30], in data set [1] (CD-1, epithelial lining fluid (ELF) / plasma, sc, read-out: ELF/plasma ratio), the Kp is about 0.38. Moreover, in data set [1] (CD-1, sc, plasma), the AUC(0-t) was 249 ± 15.5 µg·h/mL, the CL/F turned out to be 1.3 ± 0.3 mL/min/kg, the peak level (Cmax) was 32200 ± 8500 ng/mL and the MRT turned out to be 24.6 ± 16 h. Moreover, in data set [1] (CD-1, sc, plasma), the Tmax came out at 0.75 ± 0.4 h and the half-life was 18.5 ± 11 h.
